In patent US20250339359A1, “PEPTIDE HAVING ACTIVITY OF IMPROVING STATE OF SKIN, AND USE THEREOF” (CAREGEN CO., LTD., priority 2021, published 2025):

Columns and labels:
HaCaT cells [1] = experiment: Proliferation of skin cells (SRB staining), HaCaT; type: cell-based, human; conditions: 50 µM or 100 µM peptide, 72 hours, serum-free DMEM, FIG. 1B
Protocol: (§1) In this example, the aim was to confirm the effect of a peptide according to an example on proliferation of skin cells, by evaluating changes in survival rate of NIH3T3 cells, which are mouse fibroblasts, or HaCaT cells, which are human keratinocytes.
(§2) Specifically, NIH3T3 cells or HaCaT cells were seeded in a 96-well plate at a density of 5×10^3 cells/well and cultured for 24 hours. The cells were then washed once with serum-free DMEM media, and the culture medium was replaced with serum-free DMEM media. Then, 50 µM or 100 µM of the peptide consisting of the amino acid sequence of SEQ ID NO: 1 was dispensed into the medium, and cultured in a CO2 incubator at 37° C. for 72 hours. The culture was then washed twice with PBS and treated with 4% paraformaldehyde (PFA) solution for 15 minutes to fix the cultured cells. The culture was then washed twice with distilled water, treated with SRB solution for 1 hour to stain the cells, washed with 1% acetic acid solution, and dried. The dried culture was then dissolved in 20 mM Tris buffer solution and the absorbance at 560 nm was measured using a microplate reader (Molecular Devices, USA). In this example, the untreated group was used as the control group, and the group to which insulin-like growth factor was added (IGF) was used as the positive control group.

NIH3T3 cells [2] = experiment: Reactive oxygen species level after ultraviolet irradiation (DCF-DA, FACS), NIH3T3; type: cell-based, mouse; conditions: 6 J/cm2 ultraviolet rays, 50 µM or 100 µM peptide, 24 hours, FIG. 7A
Protocol: (§3) In this example, the aim was to confirm the effect of the peptide according to an embodiment on the antioxidant effect of skin cells induced by ultraviolet rays, by evaluating the level of reactive oxygen species in skin cells increased by ultraviolet irradiation.
(§4) Specifically, NIH3T3 cells or HaCaT cells were seeded in a 6-well plate at a density of 5×10^5 cells/well and cultured for 24 hours. The cells were then washed once with serum-free DMEM media, the culture medium was replaced with serum-free DMEM media, and 50 µM or 100 µM of the peptide consisting of the amino acid sequence of SEQ ID NO: 1 was dispensed to the culture medium. The culture medium dispensed with the peptide was cultured in a CO2 incubator at 37° C. for 1 hour, transferred to an e-tube, mixed with 100 ul of PBS, and dispensed into a well plate. Afterwards, using a UV irradiator (VILBER LOURMAT, France), 6 J/cm2 ultraviolet rays were irradiated to NIH3T3 cells, and 15 m J/cm2 ultraviolet rays were irradiated to HaCaT cells. The PBS in the well plate was then removed, 900 μL of the culture medium in which the peptides were dispensed was added, and the plate was cultured in a CO2 incubator at 37° C. for 24 hours. […] After washing the centrifuged cells with PBS, FL1 fluorescence values were measured through flow cytometry (FACS, BD, USA). […]

NIH3T3 cells [3] = experiment: Proliferation of skin cells (SRB staining), NIH3T3; type: cell-based, mouse; conditions: 50 µM or 100 µM peptide, 72 hours, serum-free DMEM, FIG. 1A
Protocol: as §1, §2

collagen type 1 (Col1a1) = experiment: Expression of Col1a1 in NIH3T3 cells (RT-PCR); type: cell-based, mouse; conditions: 50 µM or 100 µM peptide, 24 hours, FIG. 2, FIG. 3A
Protocol: (§5) In this example, the aim was to confirm the effect of the peptide according to an example on improving endogenous skin aging, including improvement of wrinkles and enhancement of elasticity, etc., by evaluating the expression levels of collagen type 1 (Col1a1), fibronectin, or elastin, which are known components of the dermis.
(§6) Specifically, NIH3T3 cells were seeded in a 6-well plate at a density of 3×10^5 cells/well and cultured for 24 hours. The cells were then washed once with serum-free DMEM media, and the culture medium was replaced with serum-free DMEM media. Thereafter, 50 µM or 100 µM of the peptide consisting of the amino acid sequence of SEQ ID NO: 1 was dispensed into the medium, and cultured in a CO2 incubator at 37° C. for 24 hours. The culture was then washed twice with PBS, and RNA was isolated from the culture using easy blue (iNtRON, Korea). Using an RT kit (Enzynomics, Korea), 1 μg of the isolated RNA was reverse transcribed to synthesize the respective cDNA. Polymerase chain reaction (PCR) was then performed using the cDNAs and primers Col1a1, fibronectin, and elastin. Meanwhile, the untreated group was used as the control group, and the group to which TGF-β1 was added (TGF-β1) was used as the positive control group, the nucleotide sequences of the primers used in this example are shown in Table 2 below.

sirtuin-1 (SIRT-1) = experiment: Expression of SIRT-1 in HaCaT cells (RT-PCR); type: cell-based, human; conditions: 50 µM or 100 µM peptide, 24 hours, FIG. 4, FIG. 5A
Protocol: (§7) In this example, the aim was to confirm the effect of the peptides according to an example on skin barrier defense, by evaluating the expression levels of sirtuin-1 (SIRT-1) or aquaporin-3 (AQP3).
(§8) Specifically, HaCaT cells were seeded in a 6-well plate at a density of 3×10^5 cells/well and cultured for 24 hours. The cells were then washed once with serum-free DMEM media, and the culture medium was replaced with serum-free DMEM media. Thereafter, 50 µM or 100 µM of the peptide consisting of the amino acid sequence of SEQ ID NO: 1 was dispensed into the medium, and cultured in a CO2 incubator at 37° C. for 24 hours. The culture was then washed twice with PBS, and RNA was isolated from the culture using easy blue (iNtRON, Korea). Using the RT kit (Enzynomics, Korea), 1 μg of the isolated RNA was reverse transcribed to synthesize the respective cDNA. Polymerase chain reaction was then performed using the cDNAs and primers sirtuin-1 and aquaporin-3. Meanwhile, the untreated group was used as the control group, and the group to which EGF was added (EGF) was used as the positive control group, the nucleotide sequences of the primers used in this example are shown in Table 3 below.

HaCaT cells [4] = experiment: Survival rate after ultraviolet-induced apoptosis (SRB), HaCaT; type: cell-based, human; conditions: 15 m J/cm2 ultraviolet rays, 50 µM or 100 µM peptide, 72 hours, FIG. 6B
Protocol: (§9) In this example, the aim was to confirm the effect of the peptide according to an example on the inhibition of apoptosis or cell recovery of skin cells induced by ultraviolet rays, by evaluating the change in survival rate of skin cells whose apoptosis was induced by ultraviolet irradiation.
(§10) Specifically, NIH3T3 cells or HaCaT cells were seeded in a 96-well plate at a density of 1×10^4 cells/well and cultured for 24 hours. The cells were then washed once with serum-free DMEM media, the culture medium was replaced with serum-free DMEM media, and 50 µM or 100 µM of the peptide consisting of the amino acid sequence of SEQ ID NO: 1 was dispensed to the culture medium. The culture medium dispensed with the peptide was cultured in a CO2 incubator at 37° C. for 1 hour, transferred to an e-tube, mixed with 100 ul of PBS, and dispensed into a well plate. Afterwards, using a UV irradiator (VILBER LOURMAT, France), 6 J/cm2 ultraviolet rays were irradiated to NIH3T3 cells, and 15 m J/cm2 ultraviolet rays were irradiated to HaCaT cells. The PBS in the well plate was then removed, 900 μL of the culture medium in which the peptides were dispensed was added, and the plate was cultured in a CO2 incubator at 37° C. for 72 hours. […] The dried culture was then dissolved in 20 mM Tris buffer solution and the absorbance at 560 nm was measured using a microplate reader (Molecular Devices, USA). […]

aquaporin-3 (AQP3) = experiment: Expression of AQP3 in HaCaT cells (RT-PCR); type: cell-based, human; conditions: 50 µM or 100 µM peptide, 24 hours, FIG. 4, FIG. 5B
Protocol: as §7, §8

elastin = experiment: Expression of elastin in NIH3T3 cells (RT-PCR); type: cell-based, mouse; conditions: 50 µM or 100 µM peptide, 24 hours, FIG. 2, FIG. 3C
Protocol: as §5, §6

NIH3T3 cells [5] = experiment: Survival rate after ultraviolet-induced apoptosis (SRB), NIH3T3; type: cell-based, mouse; conditions: 6 J/cm2 ultraviolet rays, 50 µM or 100 µM peptide, 72 hours, FIG. 6A
Protocol: as §9, §10

HaCaT cells [6] = experiment: Reactive oxygen species level after ultraviolet irradiation (DCF-DA, FACS), HaCaT; type: cell-based, human; conditions: 15 m J/cm2 ultraviolet rays, 50 µM or 100 µM peptide, 24 hours, FIG. 7B
Protocol: as §3, §4

fibronectin = experiment: Expression of fibronectin in NIH3T3 cells (RT-PCR); type: cell-based, mouse; conditions: 50 µM or 100 µM peptide, 24 hours, FIG. 2, FIG. 3B
Protocol: as §5, §6

Sequence: EALKYWYEN (Peptide 1) [SEQ ID NO: 1]
- proliferation of keratinocytes (HaCaT cells [1]): promoted
- level of reactive oxygen species in fibroblasts increased by ultraviolet irradiation (NIH3T3 cells [2]): reduced
- proliferation of fibroblasts (NIH3T3 cells [3]): promoted
- expression of Col1a1 (collagen type 1 (Col1a1)): increased
- expression of SIRT-1 (sirtuin-1 (SIRT-1)): increased
- cell survival rate of keratinocytes reduced by ultraviolet irradiation (HaCaT cells [4]): restored
- expression of AQP3 (aquaporin-3 (AQP3)): increased
- expression of elastin (elastin): increased
- cell survival rate of fibroblasts reduced by ultraviolet irradiation (NIH3T3 cells [5]): restored
- level of reactive oxygen species in keratinocytes increased by ultraviolet irradiation (HaCaT cells [6]): reduced
- expression of fibronectin (fibronectin): increased
